According to ChEMBL document CHEMBL1148480, “Structure-activity studies of orexin a and orexin B at the human orexin 1 and orexin 2 receptors led to orexin 2 receptor selective and orexin 1 receptor preferring ligands” (J Med Chem, 2004):
One block for each compound: values may come before it. Residues, ends and D or L forms follow the SMILES beside them.

Tests used:
[1] = Ratio of orexin-1 receptor to orexin-2 receptor in human
Orexin receptor type 2 = biological target: T1, Orexin receptor type 2 (Homo sapiens, UniProt O43614); assay: Effective agonist concentration to the human Orexin receptor type 2 was determined using the Xlfit program; assay type: functional
T1 sequence (O43614 whole entry): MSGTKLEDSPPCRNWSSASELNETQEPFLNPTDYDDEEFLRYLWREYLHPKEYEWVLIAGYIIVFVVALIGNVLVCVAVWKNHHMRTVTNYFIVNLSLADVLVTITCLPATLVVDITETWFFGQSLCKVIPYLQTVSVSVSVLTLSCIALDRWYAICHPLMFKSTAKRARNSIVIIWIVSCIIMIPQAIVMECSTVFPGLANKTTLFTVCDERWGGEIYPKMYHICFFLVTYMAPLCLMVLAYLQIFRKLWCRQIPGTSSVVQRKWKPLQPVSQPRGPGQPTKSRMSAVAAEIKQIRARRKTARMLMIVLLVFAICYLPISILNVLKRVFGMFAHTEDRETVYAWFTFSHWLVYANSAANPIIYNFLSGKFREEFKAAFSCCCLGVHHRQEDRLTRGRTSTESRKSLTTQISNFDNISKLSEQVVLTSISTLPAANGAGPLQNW

[2] = biological target: T2, Orexin/Hypocretin receptor type 1 (Homo sapiens, UniProt O43613); assay: Effective agonist concentration to human orexin receptor type 1 determined using the Xlfit program; assay type: functional
T2 sequence (O43613 whole entry): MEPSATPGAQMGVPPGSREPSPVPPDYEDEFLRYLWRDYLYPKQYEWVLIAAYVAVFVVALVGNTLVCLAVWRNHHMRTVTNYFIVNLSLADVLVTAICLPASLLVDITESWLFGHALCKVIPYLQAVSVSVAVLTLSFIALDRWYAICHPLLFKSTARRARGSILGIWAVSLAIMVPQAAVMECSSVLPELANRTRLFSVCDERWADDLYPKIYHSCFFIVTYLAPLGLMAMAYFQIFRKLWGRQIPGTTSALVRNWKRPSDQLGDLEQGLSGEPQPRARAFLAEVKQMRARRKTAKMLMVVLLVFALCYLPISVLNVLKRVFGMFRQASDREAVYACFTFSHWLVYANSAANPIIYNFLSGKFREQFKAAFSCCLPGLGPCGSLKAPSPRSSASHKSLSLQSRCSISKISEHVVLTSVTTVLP

SMILES: CC[C@H](C)[C@H](NC(=O)CNC(=O)[C@H](C)NC(=O)[C@H](C)NC(=O)[C@H](Cc1c[nH]cn1)NC(=O)[C@H](CC(N)=O)NC(=O)CNC(=O)[C@H](C)NC(=O)CNC(=O)[C@H](Cc1c[nH]cn1)NC(=O)[C@H](CC(C)C)NC(=O)[C@H](CC(C)C)NC(=O)[C@H](CCC(=O)O)NC(=O)[C@H](Cc1ccc(O)cc1)NC(=O)[C@H](CC(C)C)NC(=O)[C@H](CCCN=C(N)N)NC(=O)[C@H](CS)NC(=O)[C@H](CO)NC(=O)[C@H](CS)NC(=O)[C@@H](NC(=O)[C@H](CCCCN)NC(=O)[C@H](CCC(N)=O)NC(=O)[C@H](CCCN=C(N)N)NC(=O)[C@H](CS)NC(=O)[C@@H](N)CS)[C@@H](C)O)C(=O)N[C@@H](CC(C)C)C(=O)N[C@H](C(=O)N[C@@H](CC(C)C)C(=O)O)[C@@H](C)O (H-CCRQKTCSCRLYELLHGAGNHAAGILTL-OH)
- Ratio [1]: 1
- EC50 (Orexin receptor type 2): 0.79 µM

SMILES: CC[C@H](C)[C@H](NC(=O)CNC(=O)[C@H](C)NC(=O)[C@H](C)NC(=O)[C@H](Cc1c[nH]cn1)NC(=O)[C@H](CC(N)=O)NC(=O)CNC(=O)[C@H](C)NC(=O)CNC(=O)[C@H](Cc1c[nH]cn1)NC(=O)[C@H](CC(C)C)NC(=O)[C@H](CC(C)C)NC(=O)[C@H](CCC(=O)O)NC(=O)[C@H](Cc1ccc(O)cc1)NC(=O)[C@H](CC(C)C)NC(=O)[C@H](CCCN=C(N)N)NC(=O)[C@H](CS)NC(=O)[C@H](CO)NC(=O)[C@H](CS)NC(=O)[C@@H](N)[C@@H](C)O)C(=O)N[C@@H](CC(C)C)C(=O)N[C@H](C(=O)N[C@@H](CC(C)C)C(=O)O)[C@@H](C)O (H-TCSCRLYELLHGAGNHAAGILTL-OH)
- Ratio [1]: 3.2

SMILES: CC[C@H](C)[C@H](NC(=O)CNC(=O)[C@H](C)NC(=O)[C@H](C)NC(=O)[C@H](Cc1c[nH]cn1)NC(=O)[C@H](CC(N)=O)NC(=O)CNC(=O)[C@H](C)NC(=O)CNC(=O)[C@H](Cc1c[nH]cn1)NC(=O)[C@H](CC(C)C)NC(=O)[C@H](CC(C)C)NC(=O)[C@H](CCC(=O)O)NC(=O)[C@H](Cc1ccc(O)cc1)NC(=O)[C@H](CC(C)C)NC(=O)[C@H](CCCN=C(N)N)NC(=O)[C@H](CS)NC(=O)[C@@H](N)CO)C(=O)N[C@@H](CC(C)C)C(=O)N[C@H](C(=O)N[C@@H](CC(C)C)C(=O)O)[C@@H](C)O (H-SCRLYELLHGAGNHAAGILTL-OH)
- Ratio [1]: 2.3

SMILES: CC[C@H](C)[C@H](NC(=O)CNC(=O)[C@H](C)NC(=O)[C@H](C)NC(=O)[C@H](Cc1c[nH]cn1)NC(=O)[C@H](CC(N)=O)NC(=O)CNC(=O)[C@H](C)NC(=O)CNC(=O)[C@H](Cc1c[nH]cn1)NC(=O)[C@H](CC(C)C)NC(=O)[C@H](CC(C)C)NC(=O)[C@H](CCC(=O)O)NC(=O)[C@H](Cc1ccc(O)cc1)NC(=O)[C@H](CC(C)C)NC(=O)[C@H](CCCN=C(N)N)NC(=O)[C@H](CS)NC(=O)[C@H](CO)NC(=O)[C@H](CS)NC(=O)[C@@H](NC(=O)[C@H](CCCCN)NC(=O)[C@H](CCC(N)=O)NC(=O)[C@H](CCCN=C(N)N)NC(=O)[C@H](CS)NC(=O)[C@H](CS)NC(=O)[C@H](CC(=O)O)NC(=O)[C@@H]1CCCN1)[C@@H](C)O)C(=O)N[C@@H](CC(C)C)C(=O)N[C@H](C(=O)N[C@@H](CC(C)C)C(=O)O)[C@@H](C)O (H-PDCCRQKTCSCRLYELLHGAGNHAAGILTL-OH)
- Ratio [1]: 1.6
- EC50 (Orexin receptor type 2): 0.4 µM

SMILES: CC[C@H](C)[C@H](NC(=O)CNC(=O)[C@H](C)NC(=O)[C@H](C)NC(=O)[C@H](Cc1c[nH]cn1)NC(=O)[C@H](CC(N)=O)NC(=O)CNC(=O)[C@H](CO)NC(=O)[C@H](C)NC(=O)[C@H](CCC(N)=O)NC(=O)[C@H](CC(C)C)NC(=O)[C@H](CC(C)C)NC(=O)[C@H](CCCN=C(N)N)NC(=O)[C@H](CCC(N)=O)NC(=O)[C@H](CC(C)C)NC(=O)[C@H](CCCN=C(N)N)NC(=O)CNC(=O)[C@H](CCC(N)=O)NC(=O)[C@H](CC(C)C)NC(=O)[C@H](C)N)C(=O)N[C@@H](CC(C)C)C(=O)N[C@H](C(=O)N[C@@H](CCSC)C(=O)O)[C@@H](C)O (H-ALQGRLQRLLQASGNHAAGILTM-OH)
- Ratio [1]: 5.5

SMILES: CC[C@H](C)[C@H](NC(=O)CNC(=O)[C@H](C)NC(=O)[C@H](C)NC(=O)[C@H](Cc1c[nH]cn1)NC(=O)[C@H](CC(N)=O)NC(=O)CNC(=O)[C@H](CO)NC(=O)[C@H](C)NC(=O)[C@H](CCC(N)=O)NC(=O)[C@H](CC(C)C)NC(=O)[C@H](CC(C)C)NC(=O)[C@H](CCCN=C(N)N)NC(=O)[C@H](CCC(N)=O)NC(=O)[C@H](CC(C)C)NC(=O)[C@H](CCCN=C(N)N)NC(=O)[C@H](C)NC(=O)[C@H](CCC(N)=O)NC(=O)[C@H](CC(C)C)NC(=O)CN)C(=O)N[C@@H](CC(C)C)C(=O)N[C@H](C(=O)N[C@@H](CCSC)C(=O)O)[C@@H](C)O (H-GLQARLQRLLQASGNHAAGILTM-OH)
- Ratio [1]: 11
- EC50 (Orexin receptor type 2): 0.21 µM

SMILES: CC[C@H](C)[C@H](NC(=O)CNC(=O)[C@H](C)NC(=O)[C@H](C)NC(=O)[C@H](Cc1c[nH]cn1)NC(=O)[C@H](CC(N)=O)NC(=O)CNC(=O)[C@H](CO)NC(=O)[C@H](C)NC(=O)[C@H](CCC(N)=O)NC(=O)[C@H](CC(C)C)NC(=O)[C@H](CC(C)C)NC(=O)[C@H](CCCN=C(N)N)NC(=O)[C@H](CCC(N)=O)NC(=O)[C@H](CC(C)C)NC(=O)[C@H](CCCN=C(N)N)NC(=O)CNC(=O)[C@@H](N)CCC(N)=O)C(=O)N[C@@H](CC(C)C)C(=O)N[C@H](C(=O)N[C@@H](CCSC)C(=O)O)[C@@H](C)O (H-QGRLQRLLQASGNHAAGILTM-OH)
- Ratio [1]: 18.2

Continued, values first:

- Ratio [1]: 8.9
- EC50 (Orexin receptor type 2): 0.83 µM
SMILES: CC[C@H](C)[C@H](NC(=O)CNC(=O)[C@H](C)NC(=O)[C@H](C)NC(=O)[C@H](Cc1c[nH]cn1)NC(=O)[C@H](CC(N)=O)NC(=O)CNC(=O)[C@H](CO)NC(=O)[C@H](C)NC(=O)[C@H](CCC(N)=O)NC(=O)[C@H](CC(C)C)NC(=O)[C@H](CC(C)C)NC(=O)[C@H](CCCN=C(N)N)NC(=O)[C@H](CCC(N)=O)NC(=O)[C@H](CC(C)C)NC(=O)[C@H](CCCN=C(N)N)NC(=O)CNC(=O)[C@H](CCC(N)=O)NC(=O)[C@H](C)NC(=O)CN)C(=O)N[C@@H](CC(C)C)C(=O)N[C@H](C(=O)N[C@@H](CCSC)C(=O)O)[C@@H](C)O (H-GAQGRLQRLLQASGNHAAGILTM-OH)

- Ratio [1]: 23.5
- EC50 (Orexin receptor type 2): 0.19 µM
SMILES: CC[C@H](C)[C@H](NC(=O)CNC(=O)[C@H](C)NC(=O)[C@H](C)NC(=O)[C@H](Cc1c[nH]cn1)NC(=O)[C@H](CC(N)=O)NC(=O)CNC(=O)[C@H](CO)NC(=O)[C@H](C)NC(=O)[C@H](CCC(N)=O)NC(=O)[C@H](CC(C)C)NC(=O)[C@H](CC(C)C)NC(=O)[C@H](CCCN=C(N)N)NC(=O)[C@H](CCC(N)=O)NC(=O)[C@H](CC(C)C)NC(=O)[C@H](CCCN=C(N)N)NC(=O)[C@@H]1CCCN1C(=O)[C@H](CCC(N)=O)NC(=O)[C@H](CC(C)C)NC(=O)CN)C(=O)N[C@@H](CC(C)C)C(=O)N[C@H](C(=O)N[C@@H](CCSC)C(=O)O)[C@@H](C)O (H-GLQPRLQRLLQASGNHAAGILTM-OH)

- Ratio [1]: 7.5
- EC50 (Orexin receptor type 2): 0.16 µM
SMILES: CC[C@H](C)[C@H](NC(=O)CNC(=O)[C@H](C)NC(=O)[C@H](C)NC(=O)[C@H](Cc1c[nH]cn1)NC(=O)[C@H](CC(N)=O)NC(=O)CNC(=O)[C@H](CO)NC(=O)[C@H](C)NC(=O)[C@H](CCC(N)=O)NC(=O)[C@H](CC(C)C)NC(=O)[C@H](CC(C)C)NC(=O)[C@H](CCCN=C(N)N)NC(=O)[C@H](CCC(N)=O)NC(=O)[C@H](CC(C)C)NC(=O)[C@H](CCCN=C(N)N)NC(=O)CNC(=O)[C@@H]1CCCN1C(=O)[C@H](CC(C)C)NC(=O)CN)C(=O)N[C@@H](CC(C)C)C(=O)N[C@H](C(=O)N[C@@H](CCSC)C(=O)O)[C@@H](C)O (H-GLPGRLQRLLQASGNHAAGILTM-OH)

- Ratio [1]: > 1350
- EC50 (Orexin receptor type 2): 0.76 µM
- EC50 [2]: > 1000 µM
SMILES: CC[C@H](C)[C@H](NC(=O)CNC(=O)[C@H](C)NC(=O)[C@H](C)NC(=O)[C@H](Cc1c[nH]cn1)NC(=O)[C@H](CC(N)=O)NC(=O)CNC(=O)[C@H](CO)NC(=O)[C@H](C)NC(=O)[C@H](CCC(N)=O)NC(=O)[C@H](CC(C)C)NC(=O)[C@H](CC(C)C)NC(=O)[C@H](CCCN=C(N)N)NC(=O)[C@H](CCC(N)=O)NC(=O)[C@H](CC(C)C)NC(=O)[C@H](CCCN=C(N)N)NC(=O)CNC(=O)[C@H](CCC(N)=O)NC(=O)[C@H](CC(C)C)NC(=O)CN)C(=O)N[C@@H](CC(C)C)C(=O)N[C@@H](C)C(=O)N[C@@H](CCSC)C(=O)O (H-GLQGRLQRLLQASGNHAAGILAM-OH)

- Ratio [1]: > 375
SMILES: CC[C@H](C)[C@H](NC(=O)CNC(=O)[C@H](C)NC(=O)[C@H](C)NC(=O)[C@H](Cc1c[nH]cn1)NC(=O)[C@H](CC(N)=O)NC(=O)CNC(=O)[C@H](CO)NC(=O)[C@H](C)NC(=O)[C@H](CCC(N)=O)NC(=O)[C@H](CC(C)C)NC(=O)[C@H](CC(C)C)NC(=O)[C@H](CCCN=C(N)N)NC(=O)[C@H](CCC(N)=O)NC(=O)[C@H](CC(C)C)NC(=O)[C@H](CCCN=C(N)N)NC(=O)CNC(=O)[C@H](CCC(N)=O)NC(=O)[C@H](CC(C)C)NC(=O)CN)C(=O)N[C@@H](CC(C)C)C(=O)N1CCC[C@H]1C(=O)N[C@@H](CCSC)C(=O)O (H-GLQGRLQRLLQASGNHAAGILPM-OH)
